Earlier results as cited in patent US20050137262A1, “Highly concentrated pourable aqueous solutions of potassium ibuprofen, their preparation and their uses” (priority 2003, published 2005).

CC(C)Cc1ccc(C(C)C(=O)[O-])cc1.[K+] (centres unmarked) [potassium ibuprofen, potassium 2-(4-isobutylphenyl)propionate]
concentration of dissolved potassium ibuprofen (U.S. Pat No. 5,912,011 Table 1, system with 35.2 wt % ibuprofen, 33.3 wt % PEG 600, 7.3 wt % water): 24.2 wt % | maximum concentration of dissolved potassium ibuprofen shown (U.S. Pat. No. 6,387,400, polyethylene glycol solvent, less than about 50 mole % of ibuprofen converted to potassium salt): about 24.2 wt %
